In US11485742B2, “2-azaspiro[3.4]octane derivatives as M4 agonists” (NOVARTIS AG, priority 2019, dated 2022):

Experiments:
[1] = molecular target: T1, Cloned human M1 receptor (CHRM1) (Homo sapiens, UniProt P11229); test: CHRM1 Ca++ Flux Assay (HEK293 M1 cells, agonist mode); format: cell-based; conditions: for Emax: Percent Activity (PA), read-out: M1 FDSS PA %; for EC50: geometric mean if tested more than once, read-out: M1 FDSS EC50
T1 construct: expressed in transfected cells; host or cells: HEK293
T1 sequence (P11229 1-460): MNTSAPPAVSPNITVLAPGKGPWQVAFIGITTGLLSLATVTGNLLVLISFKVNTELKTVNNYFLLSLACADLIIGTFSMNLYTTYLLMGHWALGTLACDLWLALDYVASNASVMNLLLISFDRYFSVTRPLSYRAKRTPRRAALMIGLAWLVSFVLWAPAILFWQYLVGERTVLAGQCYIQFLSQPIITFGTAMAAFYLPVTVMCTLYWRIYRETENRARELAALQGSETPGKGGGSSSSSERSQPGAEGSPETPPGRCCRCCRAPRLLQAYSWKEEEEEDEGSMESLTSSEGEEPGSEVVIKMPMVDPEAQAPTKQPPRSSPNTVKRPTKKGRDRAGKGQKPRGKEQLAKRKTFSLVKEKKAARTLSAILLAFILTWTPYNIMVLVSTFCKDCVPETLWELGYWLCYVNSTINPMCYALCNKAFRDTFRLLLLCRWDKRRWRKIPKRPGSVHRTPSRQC
In short: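 In agonist mode, compound-induced intracellular Ca++ mobilization was recorded for 3 min by fluorescent imager. The cells were HEK293 stably expressing cloned human CHRM1, in Ca/Mg-free HBSS with 20 mM HEPES. Triplicate 11-point dose-responses were fitted by four-parameter regression and normalized to the carbachol EC100 response.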

[2] = molecular target: T2, human cloned CHRM4 receptor (Homo sapiens, UniProt P08173); test: CHRM4 Ca++ Flux Assay (M4_CHO cells, agonist mode); format: cell-based; conditions: for Emax: Percent Activity (PA), read-out: M4 FDSS PA %; for EC50: geometric mean if tested more than once, read-out: M4 FDSS EC50
T2 construct: expressed in transfected cells; host or cells: CHO-K1 (M4_CHO)
T2 sequence (P08173 1-479): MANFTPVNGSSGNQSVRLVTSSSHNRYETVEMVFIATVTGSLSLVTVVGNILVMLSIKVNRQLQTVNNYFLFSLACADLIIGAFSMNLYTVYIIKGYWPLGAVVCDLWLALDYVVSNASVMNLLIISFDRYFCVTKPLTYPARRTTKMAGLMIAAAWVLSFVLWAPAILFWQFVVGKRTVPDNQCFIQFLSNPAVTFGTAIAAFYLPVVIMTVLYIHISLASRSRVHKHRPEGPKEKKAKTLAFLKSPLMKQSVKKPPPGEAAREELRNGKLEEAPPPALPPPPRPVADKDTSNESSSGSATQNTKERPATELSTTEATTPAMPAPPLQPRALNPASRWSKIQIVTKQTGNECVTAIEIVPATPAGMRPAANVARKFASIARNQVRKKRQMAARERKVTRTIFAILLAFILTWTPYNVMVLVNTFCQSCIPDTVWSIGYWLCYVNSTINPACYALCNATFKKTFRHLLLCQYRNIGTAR
In short: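 Agonist-mode calcium flux in an M4-expressing CHO-K1 line: compounds were dosed at 11 points in triplicate and fluorescence was tracked for 3 min. Cells were preloaded with Ca++ dye and kept in −Ca/−Mg HBSS with 20 μM ATP for 60 min. Efficacy is scaled to carbachol EC100; EC50s come from four-parameter regression, geometric mean across runs.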

| Emax [1] | EC50 [1] | Emax [2] | EC50 [2] | SMILES |
| --- | --- | --- | --- | --- |
| 54% | 980 nM | 69% | 35 nM | Fc1ccc(OC[C@H]2CCOC2)c(C2CCN([C@@H]3COC4(C3)CN(c3nnco3)C4)CC2)c1 [Example 1I, (S)-7-(4-(5-fluoro-2-(((S)-tetrahydrofuran-3-yl)methoxy)phenyl)piperidin-1-yl)-2-(1,3,4-oxadiazol-2-yl)-5-oxa-2-azaspiro[3.4]octane] |
| 89% | 289 nM | 86% | 3 nM | Cc1cc(COc2ccc(F)cc2C2CCN([C@@H]3COC4(C3)CN(c3nnco3)C4)CC2)on1 [Example 2G, (S)-7-(4-(5-fluoro-2-((3-methylisoxazol-5-yl)methoxy)phenyl)piperidin-1-yl)-2-(1,3,4-oxadiazol-2-yl)-5-oxa-2-azaspiro[3.4]octane] |
